14 compounds from US20260274865A1, “Fused Ring Compound and Preparation Method Therefor and Use Thereof” (SICHUAN KELUN-BIOTECH BIOPHARMACEUTICAL CO., LTD., priority 2023, published 2026) can be followed below.

Assay type in all cases: cell-based
The subject of experiment [1] is NCI-H1975 human non-small cell lung cancer cells. The experiment in a line: Inhibitory effect of compounds on proliferation of NCI-H1975 cells (Cell Counting-Lite 2.0, 72 h). The conditions noted are these: Table 10, incubated for 72 hours. Here is the method:
(1) Cell plating: First, tumor cells NCI-H1975 were cultured in the corresponding culture medium, the cells were digested with trypsin, and the cells were resuspended after centrifugation and counted. The cells were adjusted to an appropriate concentration for plating.
(§1) Co-incubation of the compound of the present invention and tumor cells: After the cells adhered, the culture medium was removed from the cell culture plates, and the diluted biologically active molecule (the compound of the present invention) was added to the wells of the above plate, and incubated for 72 hours.
(§2) Detection of in vitro cell activity: After the incubation was completed, 50 μL of Cell Counting-Lite™ 2.0 reagent (Vazyme) was added to each well, shaken and mixed well in the dark to perform the reaction for 10 minutes, then the detection was carried out, and a microplate reader (manufacturer: BMG, model: PHERAStar-FS) was used for reading. The background RLU was obtained using Cell Counting-Lite™ reagent in cell-free culture medium, and the solvent RLU was obtained using Cell Counting-Lite™ reagent in cell-containing culture medium. […] RLU: relative light unit.

Experiment [2] has as its system NCI-N87 human gastric cancer cells. The experiment in a line: Inhibitory effects of compounds on NCI-N87 cell proliferation (Cell Counting-Lite 2.0, 72 h). The conditions noted are these: NCI-N87, 72 h. Here is the method: (1) Cell plating: First, tumor cells NCI-N87 were cultured in the corresponding culture medium, the cells were digested with trypsin, and the cells were resuspended after centrifugation and counted. The cells were adjusted to an appropriate concentration for plating.
as §1, §2

Experiment [3] has as its system HCC1954 cells. The experiment in a line: Inhibitory effect of compounds on proliferation of HCC1954 cells (Cell Counting-Lite 2.0, 72 h). The settings on record: Homo sapiens. As to the method: (1) Cell plating: First, tumor cells HCC1954 were cultured in the corresponding culture medium, the cells were digested with trypsin, and the cells were resuspended after centrifugation and counted. The cells were adjusted to an appropriate concentration for plating.
as §1, §2

Experiment [4] has as its system HT29 colon cancer cells. The experiment is described as follows: Inhibitory effect of compounds on HT29 cell proliferation (Cell Counting-Lite 2.0, 72 h). The settings on record: Homo sapiens. Here is the method:
(1) Cell plating: First, tumor cells HT29 were cultured in the corresponding culture medium, the cells were digested with trypsin, and the cells were resuspended after centrifugation and counted. The cells were adjusted to an appropriate concentration for plating.
as §1, §2

Experiment [5] has as its system HCC827 human non-small cell lung cancer cells. The experiment in a line: Inhibitory effect of compounds on HCC827 cell proliferation (Cell Counting-Lite 2.0, 72 h). The settings on record: Table 6, incubated for 72 hours, read-out: Inhibition activity of compounds on proliferation of HCC827 cells IC50. Here is the method:
(1) Cell plating: First, tumor cells HCC827 were cultured in the corresponding culture medium, the cells were digested with trypsin, and the cells were resuspended after centrifugation and counted. The cells were adjusted to an appropriate concentration for plating.
as §1, §2

Where [6] appears, read: Table 2-2, incubated for 72 hours.
[7] abbreviates: Table 8-2, incubated for 72 hours, read-out: Inhibitory activity of compounds on proliferation of HCC1954 cells IC50.
Where [8] appears, read: HT-29, Table 4-2, incubated for 72 hours.
Where [9] appears, read: Table 2-1, incubated for 72 hours.
The mark [10] stands for this setting: Table 8-1, incubated for 72 hours, read-out: Inhibition activity of compounds on proliferation of HCC1954 cells IC50.
[11] abbreviates: HT-29, Table 4-1, incubated for 72 hours.

Read-outs that look alike come from different tables or passages of the source.

On to `COc1cc2c(cc1OCCCCCOc1cc3c(cc1OC)C(=O)N1CC4(CC4)C[C@H]1CN3)NC[C@@H]1CC(c3ccc(O)cc3)=CN1C2=O` [Compound 7-3, (S)-8-((5-(((S)-2-(4-Hydroxyphenyl)-7-methoxy-5-oxo-5,10,11,11a-tetrahydro-1H-benzo[e]pyrrolo[1,2-a][1,4]diazepin-8-yl)oxy)pentyl)oxy)-7-methoxy-1,10,11,11a-tetrahydro-3H,5H-spiro[benzo[e]pyrrolo[1,2-a][1,4]diazepin-2,1′-cyclopropane]-5-one], for which the IC50 in experiment [1] is 124 nM; in experiment [2] (setting [6]) it was 79.3 nM; in experiment [3] (setting [7]), 208 nM; in experiment [4] (setting [8]), 10.2 nM.

Consider `COc1cc2c(cc1OCCCCCOc1cc3c(cc1OC)C(=O)N1CC4(CC4)C[C@H]1CN3)NC[C@@H]1CC(c3ccc(N)cc3)=CN1C2=O` [Compound 7-5, (S)-8-((5-(((S)-2-(4-Aminophenyl)-7-methoxy-5-oxo-5,10,11,11a-tetrahydro-1H-benzo[e]pyrrolo[1,2-a][1,4]diazepin-8-yl)oxy)pentyl)oxy)-7-methoxy-1,10,11,11-tetrahydro-3H,5H-spiro[benzo[e]pyrrolo[1,2-a][1,4]diazepin-2,1′-cyclopropane]-5-one], for which the IC50 in experiment [1] was 12.3 nM; in experiment [2] (setting [9]) it was 3.2 nM; in experiment [2] (setting [6]) it was 4.1 nM; in experiment [3] (setting [10]), 25.9 nM; in experiment [4] (setting [11]), 1.4 nM; in experiment [5] it was 13.1 nM.

On to `COc1cc2c(cc1OCCCCCOc1cc3c(cc1OC)C(=O)N1CC4(CC4)C[C@H]1CN3)NC[C@@H]1CC3(CC3)CN1C2=O` [Compound 7-9], for which the IC50 in experiment [1] was determined as 107 nM; in experiment [2] (setting [9]) it was 29.7 nM; in experiment [3] (setting [10]) it was 125 nM; in experiment [4] (setting [11]), 14.9 nM; in experiment [5] it was 116 nM.

`COc1cc2c(cc1OCCCCCOc1cc3c(cc1OC)C(=O)N1CC(F)(F)C[C@H]1CN3)NC[C@@H]1CC(c3ccc(N)cc3)=CN1C2=O` [Compound 7-29, (S)-2-(4-aminophenyl)-8-((5-(((S)-2,2-difluoro-7-methoxy-5-oxo-2,3,5,10,11,11a-hexahydro-1H-benzo[e]pyrrolo[1,2-a][1,4]diazepin-8-yl)oxy)pentyl)oxy)-7-methoxy-1,10,11,11a-tetrahydro-5H-benzo[e]pyrrolo[1,2-a][1,4]diazepin-5-one]: the IC50 in experiment [2] (setting [6]) came to 117 nM; in experiment [3] (setting [7]), 154 nM.

On to `COc1cc2c(cc1OCCCCCOc1cc3c(cc1OC)C(=O)N1CC4(CC4)C[C@H]1CN3)NC[C@@H]1C[C@@H](c3ccc(N)cc3)CN1C2=O` [Compound 7-34, (S)-8-((5-(((2S,11aS)-2-(4-aminophenyl)-7-methoxy-5-oxo-2,3,5,10,11,11a-hexahydro-1H-benzo[e]pyrrolo[1,2-a][1,4]diazepin-8-yl)oxy)pentyl)oxy)-7-methoxy-1,10,11,11a-tetrahydro-3H,5H-spiro[benzo[e]pyrrolo[1,2-a][1,4]diazepin-2,1′-cyclopropane]-5-one], for which, in experiment [2] (setting [6]), the IC50 was 120 nM.

In the case of `COc1cc2c(cc1OCCCCCOc1cc3c(cc1OC)C(=O)N1CC4(CC4)C[C@H]1CN3)NC[C@@H]1C[C@H](c3ccc(N)cc3)CN1C2=O` [Compound 7-35], the IC50 in experiment [2] (setting [6]) is 118 nM.

Take `COc1cc2c(cc1OCCCCCOc1cc3c(cc1OC)C(=O)N1CC4(CC4)C[C@H]1CN3)NC[C@@H]1CC(c3ccoc3)=CN1C2=O` [Compound 7-36, (S)-8-((5-(((S)-2-(furan-3-yl)-7-methoxy-5-oxo-5,10,11,11a-tetrahydro-1H-benzo[e]pyrrolo[1,2-a][1,4]diazepin-8-yl)oxy)pentyl)oxy)-7-methoxy-1,10,11,11a-tetrahydro-3H,5H-spiro[benzo[e]pyrrolo[1,2-a][1,4]diazepin-2,1′-cyclopropane]-5-one]: the IC50 in experiment [1] was determined as 114 nM; in experiment [2] (setting [9]) it was 15.4 nM; in experiment [3] (setting [10]), 144 nM; in experiment [4] (setting [11]), 14.7 nM; in experiment [5], 126 nM.

Turning to `COc1cc2c(cc1OCCCCCOc1cc3c(cc1OC)C(=O)N1CC4(CC4)C[C@H]1CN3)NC[C@@H]1CC(c3ccsc3)=CN1C2=O` [Compound 7-37, (S)-7-methoxy-8-((5-(((S)-7-methoxy-5-oxo-2-(thien-3-yl)-5,10,11,11a-tetrahydro-1H-benzo[e]pyrrolo[1,2-a][1,4]diazepin-8-yl)oxy)pentyl)oxy)-1,10,11,11a-tetrahydro-3H,5H-spiro[benzo[e]pyrrolo[1,2-a][1,4]diazepin-2,1′-cyclopropane]-5-one], the IC50 amounted to 101 nM in experiment [1]; 24.2 nM in experiment [2] (setting [9]); 148 nM in experiment [3] (setting [10]); 16.2 nM in experiment [4] (setting [11]); 124 nM in experiment [5].

On to `COc1cc2c(cc1OCCCCCOc1cc3c(cc1OC)C(=O)N1CC4(CC4)C[C@H]1CN3)NC[C@@H]1CC(c3csc(CO)c3)=CN1C2=O` [Compound 7-38, (S)-8-((5-(((S)-2-(5-(hydroxymethyl)thien-3-yl)-7-methoxy-5-oxo-5,10,11,11a-tetrahydro-1H-benzo[e]pyrrolo[1,2-a][1,4]diazepin-8-yl)oxy)pentyl)oxy)-7-methoxy-1,10,11,11a-tetrahydro-3H,5H-spiro[benzo[e]pyrrolo[1,2-a][1,4]diazepin-2,1′-cyclopropane]-5-one], for which the IC50 worked out at 105 nM in experiment [1]; 49.7 nM in experiment [2] (setting [9]); 695 nM in experiment [3] (setting [10]); 15.4 nM in experiment [4] (setting [11]); 139 nM in experiment [5].

`COc1ccc(C2=CN3C(=O)c4cc(OC)c(OCCCCCOc5cc6c(cc5OC)C(=O)N5CC(F)(F)C[C@H]5CN6)cc4NC[C@@H]3C2)cc1` [Compound 7-39, (S)-8-((5-(((S)-2,2-difluoro-7-methoxy-5-oxo-2,3,5, 10,11,11a-hexahydro-1H-benzo[e]pyrrolo[1,2-a][1,4]diazepin-8-yl)oxy)pentyl)oxy)-7-methoxy-2-(4-methoxyphenyl)-1,10,11,11a-tetrahydro-5H-benzo[e]pyrrolo[1,2-a][1,4]diazepin-5-one]: the IC50 came to 12.3 nM in experiment [1], 11 nM in experiment [2] (setting [6]), 140 nM in experiment [3] (setting [7]) and 9.7 nM in experiment [4] (setting [8]).

Regarding `COc1ccc(C2=CN3C(=O)c4cc(OC)c(OCCCCCOc5cc6c(cc5OC)C(=O)N5C[C@H](O)C[C@H]5CN6)cc4NC[C@@H]3C2)cc1` [Compound 7-40, (S)-8-((5-(((2R,11aS)-2-hydroxy-7-methoxy-5-oxo-2,3,5,10,11,11a-hexahydro-1H-benzo[e]pyrrolo[1,2-a][1,4]diazepin-8-yl)oxy)pentyl)oxy)-7-methoxy-2-(4-methoxyphenyl)-1,10,11,11a-tetrahydro-5H-benzo[e]pyrrolo[1,2-a][1,4]diazepin-5-one], the values for the IC50 in experiment [2] (setting [6]) and in experiment [3] (setting [7]) were 93.6 nM and 128 nM, respectively.

For `C=C1C[C@H]2CNc3cc(OCCCCCOc4cc5c(cc4OC)C(=O)N4C=C(c6ccc(OC)cc6)C[C@H]4CN5)c(OC)cc3C(=O)N2C1` [Compound 7-41, (S)-7-methoxy-8-((5-(((S)-7-methoxy-2-methylene-5-oxo-2,3,5,10,11,11a-hexahydro-1H-benzo[e]pyrrolo[1,2-a][1,4]diazepin-8-yl)oxy)pentyl)oxy)-2-(4-methoxyphenyl)-1,10,11,11a-tetrahydro-5H-benzo[e]pyrrolo[1,2-a][1,4]diazepin-5-one], the IC50 worked out at 69.9 nM in experiment [1]; 12.7 nM in experiment [2] (setting [9]); 259 nM in experiment [3] (setting [10]); 9.8 nM in experiment [4] (setting [11]); 225 nM in experiment [5].

On to `COc1ccc(C2=CN3C(=O)c4cc(OC)c(OCCCCCOc5cc6c(cc5OC)C(=O)N5[C@H](CN6)C[C@H]6C[C@H]65)cc4NC(=O)[C@@H]3C2)cc1` [Compound 7-42], for which the IC50 in experiment [2] (setting [6]) came to 100 nM; in experiment [4] (setting [8]), 99.7 nM.

On to `COc1ccc(C2=CN3C(=O)c4cc(OC)c(OCCCCCOc5cc6c(cc5OC)C(=O)N5[C@H](CN6)C[C@H]6C[C@H]65)cc4NC[C@@H]3C2)cc1` [Compound 7-43, (1aR,9aS,10aR)-5-methoxy-6-((5-(((S)-7-methoxy-2-(4-methoxyphenyl)-5-oxo-5,10,11,11a-tetrahydro-1H-benzo[e]pyrrolo[1,2-a][1,4]diazepin-8-yl)oxy)pentyl)oxy)-1a,8,9,9a,10,10a-hexahydrobenzo[e]cyclopropo[4,5]pyrrolo[1,2-a][1,4]diazepin-3(1H)-one], for which the IC50 in experiment [2] (setting [6]) is 10.1 nM; in experiment [4] (setting [8]) it was 10.2 nM.
